Laboratory results published in patent publication US20260315434A1, “USE OF GUAIACOL SESQUITERPENE LACTONE DERIVATIVES” (NANJING UNIVERSITY OF CHINESE MEDICINE, priority 2023, published 2026).

Legend:
[1] = test system: T cells / MDSCs; assay: Promotion of T cell proliferation in a co-culture model of MDSCs and T cells; format: cell-based, mouse; conditions: for activation at 1 µM: Mus musculus, T-cell, 12 h, read-out: T-cell proliferation rate (%), 1 μM, MDSCs treated 12 hours, co-culture of MDSCs and T cells, compared to the control group
Procedure: Under sterile conditions, the tibia was removed, both ends of the bone were cut, and bone marrow was repeatedly flushed into a 15 mL centrifuge tube using a 1 mL syringe filled with culture medium. Centrifuge at 1600 rpm for 5 min to collect bone marrow cells. […] The spleen cell suspension was then transferred into a 15 mL centrifuge tube. Centrifuge at 1600 rpm for 5 min to collect T cells. Wash twice with 1×PBS. Resuspend the centrifuged T cells in 1 mL PBS and add 1 mL of 10 μM CFDA-SE solution. Incubate at room temperature for 8 min. […] After drug administration, collect MDSC cells into centrifuge tubes. Centrifuge at 1600 rpm for 5 min, remove supernatant, resuspend in 1 mL fresh medium, and plate. Add 1 mL stimulated activated T cells (1:1 ratio) for 48 h co-culture. After incubation, collect cells into centrifuge tubes, wash twice with PBS, and incubate with Fc antibody at room temperature in the dark for 10 min. Add CD3-labeled flow cytometry antibody and incubate at 4° C. in the dark for 30 min. After incubation, wash cells with PBS, resuspend in 300 μL PBS, and analyze by flow cytometry.

[2] = Conversion (release) of prodrug salts to parent compound in HEPES buffer pH 7.4; format: in vitro ADME; conditions: for degraded at 1 h / degraded at 2 h / degraded at 4 h / degraded at 8 h / degraded at 12 h: hepes buffer, pH 7.4, HEPES pH 7.4, 37 °C, read-out: Release rate (conversion to Compound 1); for Release rate (conversion to Compound 1): HEPES pH 7.4, 37 °C
Procedure: (§1) Pharmaceutically acceptable salts of guaiane-type sesquiterpene lactone derivatives were selected and evaluated for their conversion rates to Compound 1 and Compound 83 in plasma and HEPES buffer, with results shown in Tables 2-1, 2-2, 3-1, and 3-2.
Experimental Method: Preparation of HEPES 7.4 Solution: Dissolve 1.6 g NaCl, 0.074 g KCl, 0.027 g Na2HPO4, 0.2 g glucose, and 1 g 4-(2-Hydroxyethyl)piperazine-1-ethanesulfonic acid (HEPES) solution in 90 mL distilled water. Adjust the pH to 7.4 using 0.5 M NaOH, then dilute to a final volume 100 mL with distilled water.
(§2) Sample Analysis: Dissolve 0.6 mg of the compound in 250 μL of deionized water separately. Add 250 μL of mouse serum or HEPES 7.4 solution to the sample, incubate at a constant temperature of 37° C., and collect samples at different time points. Pipette 20 μL of the sample to an EP tube, add 60 μL of methanol, vortex to mix thoroughly, and centrifuge at 12,000 rpm at 4° C. for 10 min. At 1 h, 2 h, 4 h, 8 h, and 12 h respectively, collect the supernatant for HPLC analysis. Inject 10 μL of sample and record the corresponding peak areas. Chromatographic conditions: Hanbang C18 column (4.6×250 mm, 5 μm); mobile phase: acetonitrile: […] ammonium formate solution=60:40; flow rate 1.0 mL/min; detection wavelength 210 nm; column temperature 30° C.

[3] = Conversion (release) of prodrug salts to parent compound in mouse plasma; format: in vitro ADME; conditions: 37 °C; for metabolised at 1 h / metabolised at 2 h / metabolised at 4 h / metabolised at 8 h / metabolised at 12 h: mouse, plasma, read-out: Release rate (conversion to Compound 1)
Procedure: as §1
Plasma Preparation: Collect mouse plasma into an EP tube pre-loaded with sodium heparin, centrifuge at 8000 rpm for 10 minutes at 4° C., and then collect the supernatant.
as §2

degraded at 2 h ([2]; 2 h) [%] | degraded at 4 h ([2]; 4 h) [%] | degraded at 8 h ([2]; 8 h) [%] | degraded at 12 h ([2]; 12 h) [%] | metabolised at 1 h ([3]; 1 h) [%] | metabolised at 2 h ([3]; 2 h) [%] | metabolised at 4 h ([3]; 4 h) [%] | metabolised at 8 h ([3]; 8 h) [%] | metabolised at 12 h ([3]; 12 h) [%] | Compound | activation at 1 µM [1] [%] | other results
 |  |  |  |  |  |  |  |  | C[C@@]12CC[C@@H]3[C@H](OC(=O)[C@H]3CN3CCNCC3)[C@@H]3[C@]1(CC[C@@]3(C)O)C2 [Compound 7] | 0 to 20 | 
16.1 | 27.3 | 43.5 | 55.6 | 7.8 | 17.1 | 29.3 | 48.5 | 65.6 | C[C@@]12CC[C@@H]3[C@H](OC(=O)[C@H]3CN3CCNCC3)[C@@H]3[C@]1(CC[C@@]3(C)O)C2 [Compound 26] |  | degraded at 1 h ([2]; 1 h): 6.8%
15.4 | 27.4 | 42.2 | 54.8 | 7.9 | 17.4 | 28.4 | 48.2 | 59.1 | CCN1CCN(C[C@@H]2C(=O)O[C@H]3[C@H]2CC[C@@]2(C)C[C@]24CC[C@@](C)(O)[C@H]34)CC1 [Compound 27] |  | degraded at 1 h ([2]; 1 h): 6.9%
14.5 | 24.4 | 40.4 | 50 | 6.8 | 14.5 | 24.4 | 40.4 | 49.1 | CCN(CC)C[C@@H]1C(=O)O[C@H]2[C@H]1CC[C@@]1(C)C[C@]13CC[C@@](C)(O)[C@H]23 [Compound 28] |  | degraded at 1 h ([2]; 1 h): 6.8%
 |  |  |  |  |  |  |  |  | CN(C)C[C@@H]1C(=O)O[C@H]2[C@H]1CC[C@@]1(C)C[C@]13CC[C@@](C)(O)[C@H]23 [Compound 40] |  | Release rate (conversion to Compound 1) ([2]; 1 h, 60 min): 6.8%; Release rate (conversion to Compound 1) ([2]; 2 h, 120 min): 14.6%; Release rate (conversion to Compound 1) ([2]; 4 h, 240 min): 26.2%; Release rate (conversion to Compound 1) ([2]; 8 h, 480 min): 44.0%; Release rate (conversion to Compound 1) ([2]; 12 h, 720 min): 50.2%; Release rate (conversion to Compound 1) ([3]; 1 h, 60 min): 6.7%; Release rate (conversion to Compound 1) ([3]; 2 h, 120 min): 14.2%; Release rate (conversion to Compound 1) ([3]; 4 h, 240 min): 26.8%; Release rate (conversion to Compound 1) ([3]; 8 h, 480 min): 44.0%; Release rate (conversion to Compound 1) ([3]; 12 h, 720 min): 52.6%
 |  |  |  |  |  |  |  |  | CN(C)C[C@@H]1C(=O)O[C@H]2[C@H]1CC[C@@]1(C)C[C@]13CC[C@@](C)(O)[C@H]23 [Compound 41] |  | Release rate (conversion to Compound 1) ([2]; 1 h, 60 min): 7.0%; Release rate (conversion to Compound 1) ([2]; 2 h, 120 min): 16.2%; Release rate (conversion to Compound 1) ([2]; 4 h, 240 min): 27.3%; Release rate (conversion to Compound 1) ([2]; 8 h, 480 min): 43.4%; Release rate (conversion to Compound 1) ([2]; 12 h, 720 min): 53.2%; Release rate (conversion to Compound 1) ([3]; 1 h, 60 min): 7.8%; Release rate (conversion to Compound 1) ([3]; 2 h, 120 min): 17.2%; Release rate (conversion to Compound 1) ([3]; 4 h, 240 min): 28.0%; Release rate (conversion to Compound 1) ([3]; 8 h, 480 min): 46.1%; Release rate (conversion to Compound 1) ([3]; 12 h, 720 min): 54.8%
 |  |  |  |  |  |  |  |  | CN(C)C[C@@H]1C(=O)O[C@H]2[C@H]1CC[C@@]1(C)C[C@]13CC[C@@](C)(O)[C@H]23 [Compound 42] |  | Release rate (conversion to Compound 1) ([2]; 1 h, 60 min): 7.0%; Release rate (conversion to Compound 1) ([2]; 2 h, 120 min): 15.0%; Release rate (conversion to Compound 1) ([2]; 4 h, 240 min): 25.2%; Release rate (conversion to Compound 1) ([2]; 8 h, 480 min): 42.8%; Release rate (conversion to Compound 1) ([2]; 12 h, 720 min): 52.3%; Release rate (conversion to Compound 1) ([3]; 1 h, 60 min): 6.3%; Release rate (conversion to Compound 1) ([3]; 2 h, 120 min): 14.2%; Release rate (conversion to Compound 1) ([3]; 4 h, 240 min): 26.2%; Release rate (conversion to Compound 1) ([3]; 8 h, 480 min): 41.0%; Release rate (conversion to Compound 1) ([3]; 12 h, 720 min): 47.2%
 |  |  |  |  |  |  |  |  | CC1CCN(C[C@@H]2C(=O)O[C@H]3[C@H]2CC[C@@]2(C)C[C@]24CC[C@@](C)(O)[C@H]34)CC1 [Compound 43] |  | T-cell proliferation rate (%) ([1]; 1 μM, MDSCs treated 12 hours, co-culture of MDSCs and T cells, compared to the control group): + (T-cell proliferation rate within the 0-20% range compared to the control group)
 |  |  |  |  |  |  |  |  | CC(C)(C)OC(=O)N1CCN(C[C@@H]2C(=O)O[C@H]3[C@H]2CC[C@@]2(C)C[C@]24CC[C@@](C)(O)[C@H]34)CC1 [Compound 44] | 0 to 20 | 
 |  |  |  |  |  |  |  |  | CN(C)C[C@@H]1C(=O)O[C@H]2[C@H]1CC[C@@]1(C)C[C@]13C[C@@H](O)[C@@](C)(O)[C@H]23 [Compound 60] | 0 to 20 | 
 |  |  |  |  |  |  |  |  | CC1=C2[C@H]3OC(=O)[C@@H](CN(C)C)[C@@H]3CC[C@@]3(C)C[C@@]23CC1 [Compound 62] | 0 to 20 | 
 |  |  |  |  |  |  |  |  | CCC(=O)O[C@]1(C)CC[C@@]23C[C@]2(C)CC[C@@H]2[C@H](CC(=O)[C@H]2CN(C)C)[C@H]31 [Compound 63] | 0 to 20 | 

Compound | degraded at 2 h ([2]; 2 h) [%] | degraded at 4 h ([2]; 4 h) [%] | degraded at 8 h ([2]; 8 h) [%] | degraded at 12 h ([2]; 12 h) [%] | metabolised at 1 h ([3]; 1 h) [%] | metabolised at 2 h ([3]; 2 h) [%] | metabolised at 4 h ([3]; 4 h) [%] | metabolised at 8 h ([3]; 8 h) [%] | metabolised at 12 h ([3]; 12 h) [%] | activation at 1 µM [1] [%] | other results
C[C@@]12CC[C@@H]3[C@H](OC(=O)[C@H]3CN3CCCC3)[C@@H]3[C@]1(CC[C@@]3(C)O)C2 [Compound 22] | 14.8 | 26.6 | 41.3 | 53.7 | 7.4 | 16.8 | 27.6 | 46.3 | 57.7 |  | degraded at 1 h ([2]; 1 h): 6.4%
CN(C)C[C@@H]1C(=O)O[C@H]2[C@H]1CC[C@@]1(C)C[C@]13CC[C@@](C)(O)[C@H]23 [Compound 39] | 15 | 26.8 | 42.7 | 54.3 | 6.6 | 14 | 26.2 | 43.6 | 52.8 |  | Release rate (conversion to Compound 1) ([2]; 1 h, 60 min): 6.6%
